# Values quoted from earlier work, collected in patent US12251425B2, “Sustained-release lipid preformulation and pharmaceutical composition for sustained-release injection in form of lipid solution containing same” (IMDPHARM INC., priority 2019, dated 2025).
# Settings: 25° C.
substance,measurement,value
sorbitan monooleate,viscosity,about 1000 mPa·s
